In patent US20260091082A1, “CYCLIC PEPTIDE DERIVATIVE COMPOSITION FOR TREATING OR PREVENTING EYE DISEASE” (DKS Co. Ltd., priority 2022, published 2026):
Values joined by “and” are separate entries in the source; they are usually repeats but may differ in a detail not shown here. Equal entries are not always repeated.

Tests used:
[1] = test system: anterior chamber aqueous humor pressure load rat model; experiment: Retinal thickness (IPL, INL, ONL) in retinal damage model induced by anterior chamber aqueous humor pressure load; format: in vivo, Rat; Slc: SD
Description: • Name: Compound 9 • Source: Synthesized in the above Examples • Used amount: 0.4 mL (50 mg/mL solution) • Storage conditions: Freezing, light shielding
Method for preparing test substance (1 mg/mL): A high concentration solution prepared at 50 mg/mL was diluted 50 times with a medium to prepare a 1 mg/mL administration solution.
• Name: MK-801 • Distributor: SIGMA-ALDRICH • Use amount: 0.0501 g • Storage condition: refrigerated (2° C. to 8° C.)
Method for preparing positive control substance (10 mg/mL): 0.0501 g was weighed out and made up to a total volume of 5 mL with a control substance (physiological saline).
(§1) • Species and strains: Rat; Slc: SD • Number of animals on arrival and sex: 50 males • Age in weeks at arrival: 6 weeks old • Body weight range at arrival: 147.2 to 170.0 g • Source: Japan SLC, Inc.
Grouping was performed two days before the first creation of the retinal damage model induced by an anterior chamber aqueous humor pressure load. Using the daily body weight as an index, stratified random allocation was performed using SAS (Ver. 9.3, SAS Institute Japan Ltd.) and EXSUS (Ver. 8.0, CAC Croit Corporation) so that an average value of the body weights of each group was approximately uniform.
(§2) • Administration route: Eyedrop administration, intravenous administration • Administration method (eyedrop): Eyedrop administration was performed on a treated eye (right eye) of a rat using a micropipette 4 times a day (at intervals of 1.5 hours or more). • Administration method (intravenous): The amount of administration solution, calculated from the body weight on the day of administration, was administered from the tail vein using a syringe and an injection needle about 30 minutes before ischemic load. • Time of administration: Administration was performed according to the following schedule.
1. 10 mg/kg xylazine hydrochloride was intramuscularly administered on the model creation day (day 0). A rat was placed in an anesthesia box and subjected to general anesthesia with isoflurane (5%, oxygen:nitrous oxide=1:3). When anesthesia was effective, the rat was taken out of the anesthesia box, an inhalation anesthetic mask was worn, and anesthesia was maintained with isoflurane (1% to 5%, oxygen nitrous oxide=1:3).
2. The body temperature was maintained at 37° C. with a warming mat, and a mydrin P ophthalmic solution was instilled in the right eye (treated eye) of the rat to dilate the pupil, then the cravit ophthalmic solution 1.5% (Santen Pharmaceutical Co., Ltd.) was instilled.
3. A bottle of an IV bag containing physiological saline was previously suspended so that a water surface was 155 cm (100 mmHg or more) higher than the eye of the rat. The IV bag was connected to a pediatric infusion set (Terumo Corporation), a 27 G injection needle thereof was inserted into and fixed to the anterior chamber while slightly dripping the liquid from a needle tip. The model was created in the light phase (6:00 to 18:00) in consideration of the diurnal variation of the intraocular pressure.
4. After the needle was inserted into the anterior chamber, pressure (100 mmHg or more) was loaded and maintained in the anterior chamber by associating the reflux system.
5. After an ischemic load for 45 minutes, the injection needle and the like were removed, the inhalation anesthetic mask was removed, and the rat was sufficiently woken up under a warming mat, and then returned to the cage.
6. For 2 days after surgery, 10 mg/kg xylazine hydrochloride was intramuscularly administered as an analgesic for the purpose of alleviating the pain after the treatment.
1. Fourteen days after model creation, general anesthesia was performed with isoflurane (5%, oxygen:nitrous oxide=1:3), euthanasia was then performed by exsanguination, a suture was placed as a marker at the 12 o'clock position of the ocular conjunctiva, and eyeball enucleation was performed.
2. […]

[2] = General condition observation (clinical signs) in anterior chamber aqueous humor pressure load rat model; format: in vivo, Rat; Slc: SD; set-up: key: —: No anormal sign; conditions: 10 mg/mL intravenous, once about 30 minutes before ischemic load, animals 401-410 (test group 4), per animal
Description: as §1
The body weight of the animals was measured at a frequency of once a week or more, and the general condition observation was performed every day.
as §2

[3] = MK-801, 10 mg/mL intravenous, right eye, individual animals 401-410
[4] = test group 4 (positive control, intravenous)

Structure (SMILES): C[C@]12N[C@H](Cc3ccccc31)c1ccccc12 [MK-801, reference compound]
- Thickness of ONL, distance from optic disk 600 μm (single measurement) [1, 3]: 54.862 μm and 55.200 μm and 39.132 μm and 42.030 μm and 46.694 μm and 48.910 μm and 53.036 μm and 51.036 μm and 37.502 μm and 37.761 μm and 41.216 μm and 41.515 μm and 39.682 μm and 37.237 μm and 46.859 μm and 44.945 μm and 44.217 μm and 44.145 μm and 50.162 μm and 48.259 μm and 48.902 μm and 41.131 μm and 49.194 μm and 53.714 μm and 39.721 μm and 42.784 μm and 37.125 μm and 46.818 μm and 44.498 μm and 50.125 μm
- Thickness of ONL, distance from optic disk 900 μm (single measurement) [1, 3]: 50.646 μm and 51.429 μm and 55.123 μm and 43.100 μm and 44.611 μm and 41.813 μm and 43.865 μm and 45.150 μm and 42.936 μm and 50.620 μm and 52.065 μm and 51.575 μm and 38.927 μm and 44.018 μm and 42.314 μm and 45.648 μm and 44.179 μm and 43.513 μm and 35.404 μm and 34.065 μm and 37.439 μm and 46.755 μm and 42.208 μm and 44.217 μm and 44.685 μm and 43.759 μm and 46.364 μm and 47.690 μm and 47.148 μm and 49.406 μm
- Inner nuclear layer (INL) thickness compared with the control group, in words [1, 4]: no obvious change was observed
- Outer nuclear layer (ONL) thickness compared with the control group, in words [1, 4]: statistically significant differences were observed at measurement sites between 600 to 900 μm from the optic disk
- Inner plexiform layer (IPL) thickness compared with the control group, in words ([1]; test group 4 (positive control, intravenous), 300 to 900 μm from the optic disk): statistically significant suppression of retinal damage was shown at all measurement sites
- Clinical signs ([2]; Day 0): —
- Clinical signs ([2]; Day 1): —
- Clinical signs ([2]; Day 2): —
- Clinical signs ([2]; Day 3): —
- Clinical signs ([2]; Day 4): —
- Clinical signs ([2]; Day 5): —
- Clinical signs ([2]; Day 6): —
- Clinical signs ([2]; Day 7): —
- Clinical signs ([2]; Day 8): —
- Clinical signs ([2]; Day 9): —
- Clinical signs ([2]; Day 10): —
- Clinical signs ([2]; Day 11): —
- Clinical signs ([2]; Day 12): —
- Clinical signs ([2]; Day 13): —
- Clinical signs ([2]; Day 14 (day of necropsy)): —
- Clinical signs ([2]; Day −1): —
- Clinical signs ([2]; Day −2): —
